{"source": "patent US20200155555A1", "about": "“VITAMIN RECEPTOR DRUG DELIVERY CONJUGATES FOR TREATING INFLAMMATION” (Endocyte, Inc., priority 2007, published 2020)", "key": {"[1]": {"assay": "Plasma pharmacokinetics after a single i.v. or s.c. dose of EC0565", "settings": "rats", "protocol": "The bioavailability of EC0565 after subcutaneous injection was measured. Female Lewis rats with rounded tip jugular vein catheters (Harlan) were fed regular rodent diet. The treated animals were given a single intravenous or subcutaneous dose of EC0565 at 2 μmol/kg. […] For subcutaneous administration (FIG. 52B), whole blood samples (300 μl) were collected from the animals at 1 min, 10 min, 30 min, 1 h, 2 h, 3 h, 4 h, 8 h, and 12 h post injection. The blood samples were placed into anti-coagulant tubes containing 1.7 mg/mL of K3-EDTA and 0.35 mg/mL of N-maleoyl-beta-alanine (0.35 mg/mL). Plasma samples were obtained by centrifugation for 3 min at ˜2,000 g and stored at −80° C. The amount of EC0565 and its released base drug (everolimus) were determined by HPLC using the EC0565 injection solution as the standard."}, "DHFR": {"target": "T1, DHFR (Mus musculus, UniProt P00375)", "T1 construct": "endogenous in cells; host or cells: RAW264.7 cells", "T1 sequence (P00375 1-187)": "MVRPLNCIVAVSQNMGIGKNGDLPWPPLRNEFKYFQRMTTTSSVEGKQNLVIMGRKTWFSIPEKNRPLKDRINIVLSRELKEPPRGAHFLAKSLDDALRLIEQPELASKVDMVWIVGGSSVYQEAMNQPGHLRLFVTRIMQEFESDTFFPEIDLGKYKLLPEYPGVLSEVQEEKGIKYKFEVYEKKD", "assay": "DHFR activity in lysate of treated RAW264.7 cells", "format": "cell-based, murine", "settings": "excess folic acid alone, 10 μM", "protocol": "RAW264.7 cells were treated with vehicle (medium), EC0746 (100 nM) without or with 100-fold excess free folate, aminopterin (AMT, 100 nM), methotrexate (MTX, 100 nM), or excess free folate alone (10 μM). After 1 h incubation, the drug-containing media were replaced with fresh medium and the cells were allowed to incubate further for 24 h. At the end of incubation, the cells were lysed and the DHFR activity in cell lysates was measured using a commercial DHFR assay kit (Sigma-Aldrich, Saint Louis, Mo.)."}, "[2]": {"tested_on": "Proliferating Cell Nuclear Antigen (PCNA) in RAW264.7 cells", "assay": "Western blot for proliferating cell nuclear antigen", "format": "cell-based, murine", "settings": "1-1000 nM; EC0565 2 h treatment and 48 h chase, everolimus 48 h"}, "[3]": {"tested_on": "rats with adjuvant-induced arthritis (AIA)", "assay": "Adjuvant-induced arthritis (AIA) model", "protocol": "Female Lewis rats were fed a folate-deficient diet (Harlan Teklad, Indianapolis, Ind.) for 9-10 days prior to arthritis induction. The adjuvant-induced arthritis (AIA) was induced by intradermal inoculation (at the base of tail) of 0.5 mg of heat-killed Mycobacteria butyricum (BD Diagnostic Systems, Sparks, Md.) in 100 μL light mineral oil (Sigma). Ten days after arthritis induction, paw edema in rats was assessed using a modified arthritis scoring system: 0=no arthritis; 1=swelling in one type of joint; 2=swelling in two types of joint; 3=swelling in three types of joint; 4=swelling of the entire paw. A total score for each rat is calculated by summarizing the scores for each of the four paws, giving a maximum score of 16 for each rat. On Day 10 post arthritis induction, rats with a total arthritis score of ≥2 were removed from the study and the remaining rats were distributed evenly across the control and treatment groups (n=5 for all groups except that n=2-3 for healthy controls). All treatments started on Day 10 unless mentioned otherwise. […]\nRats with adjuvant arthritis were treated subcutaneously with EC0932 (250 nmol/kg) in the absence or presence of 500-fold excess of EC0923 (125 μmol/kg) on days 10, 13, 17, and 20 post arthritis induction. The animals in the healthy and arthritis control groups were left untreated. The arthritis scores and animal body weights were recorded three times a week (see FIG. 19A, B). At the completion of study (day 24), the rats were euthanized by CO2 asphyxiation and processed for paw and spleen weights (see FIG. 20A, B).\nThe rat adjuvant induced arthritis (AIA) model resembles the characteristics of RA in humans and has been widely used to study the impact of novel anti-inflammatory agents."}, "[4]": {"settings": "oral everolimus 500 nmol/kg tiw"}}, "data": [{"smiles": "CO[C@H]1C[C@@H]2CC[C@@H](C)[C@@](O)(O2)C(=O)C(=O)N2CCCC[C@H]2C(=O)O[C@H]([C@H](C)C[C@@H]2CC[C@@H](OCCOC(=O)OCCSSC[C@H](NC(=O)[C@H](CCC(=O)NC[C@H](O)[C@@H](O)[C@H](O)[C@H](O)CO)NC(=O)[C@H](CCC(=O)O)NC(=O)[C@H](CCC(=O)NC[C@H](O)[C@@H](O)[C@H](O)[C@H](O)CO)NC(=O)[C@H](CCC(=O)O)NC(=O)[C@H](CCC(=O)NC[C@H](O)[C@@H](O)[C@H](O)[C@H](O)CO)NC(=O)CC[C@H](NC(=O)c3ccc(NCc4cnc5nc(N)[nH]c(=O)c5n4)cc3)C(=O)O)C(=O)O)[C@H](OC)C2)CC(=O)[C@H](C)/C=C(\\C)[C@@H](O)[C@@H](OC)C(=O)[C@H](C)C[C@H](C)/C=C/C=C/C=C/1C", "note": "[EC0565, Everolimus-EC0488 Conjugate]", "values": [{"measurement": "free drug (everolimus) exposure/release in plasma, based on AUC", "setting": "[1]; single intravenous dose of EC0565, 2 μmol/kg", "result": "approximately 18%"}, {"measurement": "free drug (everolimus) exposure/release in plasma, based on AUC", "setting": "[1]; single subcutaneous dose of EC0565, 2 μmol/kg", "result": "~17", "unit": "%"}]}, {"smiles": "Nc1nc2ncc(CNc3ccc(C(=O)N[C@@H](CCC(=O)O)C(=O)O)cc3)nc2c(=O)[nH]1", "note": "[folic acid]", "values": [{"measurement": "effect on DHFR activity in RAW264.7 cells", "setting": "DHFR", "result": "did not have any impact"}]}, {"smiles": "CO[C@H]1C[C@@H]2CC[C@@H](C)[C@@](O)(O2)C(=O)C(=O)N2CCCC[C@H]2C(=O)O[C@H]([C@H](C)C[C@@H]2CC[C@@H](OCCO)[C@H](OC)C2)CC(=O)[C@H](C)/C=C(\\C)[C@@H](O)[C@@H](OC)C(=O)[C@H](C)C[C@H](C)/C=C/C=C/C=C/1C", "note": "[everolimus]", "values": [{"measurement": "effect on PCNA in synchronized RAW264.7 cells", "setting": "[2]", "result": "inhibited PCNA activities"}, {"measurement": "spleen weight compared to arthritic controls", "setting": "[3]; 500 nmol/kg 3 times a week, EC0565 sc, everolimus oral", "result": "significantly decreased spleen weight compared to arthritic controls"}, {"measurement": "decrease in dorsal to ventral paw thickness", "setting": "[3]; [4]", "result": 44, "unit": "%"}, {"measurement": "decrease in summed histological score", "setting": "[3]; [4]", "result": 52, "unit": "%"}, {"measurement": "reductions in all scored histology parameters vs untreated controls", "setting": "[3]; [4]", "result": "44-61%"}]}]}
